From a melting point compilation (Tetko et al.; mined from patent text by program, amines drawn as free bases though some values may be those of a salt)

Row | melting point [°C] | Compound
1 | 291 to 293 | COc1cc(C(=O)NS(=O)(=O)c2ccccc2Cl)ccc1Cn1cc(/C=C/C(=O)N2CCCC2)c2ccc(/C=C/C(=O)N3CCCC3)cc21
2 | 195 to 196 | COc1ccccc1Oc1c(NS(=O)(=O)c2ccc(C)cn2)nc(N2CCOCC2)nc1OCCO
3 | 158 to 160 | Nc1ccc(NC(=O)N2CCc3cc(S(=O)(=O)N4CC(c5ccccc5)NC4=O)ccc32)cc1 (stereo not given)
4 | 130 | C=CCN1C(=O)CN(c2ccc(OCc3ccccc3)cc2)C1=S
5 | 168 to 169 | c1ccc(-c2ccc3sc(-c4nc(COc5ccc(CCCn6ccnc6)cc5)co4)cc3c2)cc1
6 | 213 to 216 | O=C(O)Cc1ccc(-c2nc3ccccc3o2)cc1F
7 | 253 to 255 | CCNC(=O)c1cnn(C)c1C(=O)Nc1ccn2nc(-c3ccccc3)nc2c1
8 | 135 to 136 | NC(CCCCNC(=O)OCc1ccccc1)C(=O)N(Cc1ccccc1)Cc1ccccc1 (stereo not given)
9 | 153 | CC(=O)NC(CC(=O)N[C@@H]1CN2C(=O)N(c3cc(Cl)nc(Cl)c3)C(=O)[C@@]2(Cc2ccc(OC(F)(F)F)cc2)C1)C(N)=O (stereo not given in full)
10 | 185 to 186 | Cc1cc(-c2nc3c(Cl)cccc3c(=O)n2-c2ccc(Br)cc2)cc(C)c1OCCO
11 | 179 to 182 | CC(=O)Nc1ccc(OCc2nc3ccccc3s2)cc1C
12 | 170 to 172 | CC1CC(NC(=O)C(F)(F)F)=NN1c1ccc(Cl)cc1 (stereo not given)
13 | 146 to 147 | Cc1cc(C)c2nc(C)c(NC(=O)Nc3cccc(C(F)(F)F)c3)c(-c3ccccc3Cl)c2c1
14 | 194 to 196 | Cc1ccc(-c2c(C(=O)O)n(CCCBr)c(=O)c3ncccc23)cc1
15 | 80 to 82 | Cc1ccc(S(=O)(=O)OCC2Cc3cc(Cl)cc(-c4cccc(Cl)c4)c3O2)cc1 (stereo not given)
16 | 98 to 100 | COC(=O)c1c2cccccc-2c(-c2ccccc2)c1-c1ccc(S(C)(=O)=O)cc1
17 | 160 to 162 | CCOC(=O)c1nc(-c2ccc(Cl)cc2Cl)n(-c2ccc(C(F)(F)F)cc2)c1C
18 | 90 to 93 | CC(C)(C)C(O)c1ccc(C2(c3ccccc3)OCCO2)cc1 (stereo not given)
19 | 164 to 166 | Nc1nccn2c(C3CCC3)nc(-c3ccccc3)c12
20 | 150 | CCc1cccc(NC(=O)c2ccn3c2CSC3c2cccnc2)n1 (stereo not given)
21 | 145 | COc1c(C)cc(C(=O)c2cc(-c3ccc(NC(C)=O)cc3)c(N3CCOCC3)s2)nc1C

Row | melting point [°C] | Compound
22 | 212 to 214 | c1ccc(CCN2CCN(c3n[nH]c4c3Cc3ccccc3-4)CC2)cc1
23 | 206 to 207 | COC(=O)N1CCN(c2ccn3nc(-c4ccccc4)c(-c4ccc(=O)n(C(C)C)n4)c3c2)CC1
24 | 174 to 175 | CC(C)Cn1c(=O)n(C)c(=O)c2c(S(=O)(=O)CCCC(=O)O)c(Cc3cccc4ccccc34)sc21
25 | 82 to 83 | Cc1ccccc1C(=O)C=CC(=O)O
26 | 145 | Cc1ccc(S(=O)(=O)OCC2COc3ccc4[nH]ccc4c3O2)cc1 (stereo not given)
27 | 115 to 116 | CCCC(=O)c1cnc2c(C)cccc2c1Nc1cc(OC)ccc1OC
28 | 182 to 184 | CN1CCN(c2nccc(Oc3ccc(NC(=O)c4cc(F)cc(N5CCCCC5)c4)c4ccccc34)n2)CC1
29 | 208 to 210 | CS(=O)(=O)N(Cc1cccnc1)c1ccc(O)cc1
30 | 157 | O=C(c1ccc(F)cc1)C1CCN(CCCn2c(=O)[nH]c3ccc(Cl)cc32)CC1
31 | 171 to 172 | COC1=C(OC)C(=O)c2c(C#N)cccc2C1=O
32 | 182 to 183 | CC(=O)n1cc(C#N)c(-c2ccc(F)c(Cl)c2F)c1
33 | 315 to 317 | O=C(O)c1ccc(-c2ccn(-c3ccc(C(F)(F)F)cc3)c2)cc1
34 | 252 to 253 | CCCC(=O)c1cnc2c(OC)cccc2c1Nc1ccc(O)cc1C
35 | 190 to 191 | CCc1nc(/C=C/c2cn(-c3ccccc3)nc2OCc2ccc(OCc3nc(-c4cccc(C(=O)O)c4)oc3C)c(OC)c2)cs1
36 | 302 to 305 | Cn1cc2c(O)cc(-c3ccc(Cl)cc3)nc2n1
37 | 90 to 96 | Cn1c(=O)c2ccccc2n(CCCBr)c1=O
38 | 163 to 164 | O=C(O)COc1ccc2c(-c3ccccc3F)csc2c1Cl
39 | 284 to 286 | CC(=O)Nc1nc(-c2cc(C)cc(C)c2)c(-c2ccncc2)s1
40 | 176 to 177 | O=C(NO)C1(NS(=O)(=O)c2ccc(Oc3ccc(F)cc3)cc2)CCOCC1
41 | 320 | Cc1[nH]c(=O)oc1C(=O)c1ccc(-n2ccnc2)cc1
42 | 142 to 143 | Cc1ccc(CCOc2ccnc3c(OCCc4ccc(C)cc4)cccc23)cc1

More lines, now with the values behind:

Row | Compound | melting point [°C]
43 | CC(C)NCC(O)(Cn1cncn1)c1ccc(Cl)cc1Cl (stereo not given) | 132 to 133
44 | OC1CCCc2cc(F)cc(F)c21 (stereo not given) | 102 to 103
45 | OC(Cn1cncn1)(c1ccc(F)cc1F)C(F)(F)SC1CC1 (stereo not given) | 99 to 102
46 | CC(C)c1cnc(NC(=O)Nc2cccc(I)c2)s1 | 90 to 92
47 | CC(C)(C)CCP1C(O)C(O)P(CCC(C)(C)C)C(O)C1O (stereo not given) | 186 to 210
48 | CC[C@H](C)CCCCc1cnc(-c2ccc(OC(C)C)cc2)nc1 | 47.2 to 47.7
49 | CCOC(=O)c1cnn2c1c(S)nc1c(C)nn(C)c12 | 189 to 191
50 | CCN(CC)C(=O)COC(=O)CCNC(=O)[C@H](Cc1ccc(-c2ccccc2)cc1)NCP(=O)(Oc1ccccc1)Oc1ccccc1 | 68 to 74
51 | CCOC(Cc1c(N(C(C)=O)C(C)=O)nc(NC(C)=O)[nH]c1=O)OCC | 128 to 130
52 | CC(C)(CC(N)=O)c1ccc2c(c1)OCO2 | 70 to 71.5
53 | COc1cc2c(c(OC)c1)C1=C(CC2)C2=CCC(OC(C)=O)C2(C)CC1 (stereo not given) | 122 to 124
54 | Fc1ccc(C2C=C(C(F)(F)F)NC3=C2SCC=C3)cc1Br (stereo not given) | 195 to 198
55 | CCOC(=O)N1CCC(N(C)C(=O)c2ccc(Cl)c(Cl)c2)C12CCCCC2 (stereo not given) | 57 to 60
56 | CNC(=O)Nc1ccc2c(c1)C(=O)C1(CC1)O2 | 196 to 204
57 | CCCCc1n[nH]c(=S)n(N)c1=O | 131
58 | CCc1c2c(nc3cc(F)c(OC)cc13)-c1cc3c(c(=O)n1C2)COC(=O)CC3(O)CC (stereo not given) | > 275
59 | CNc1cc(C)cc([N+](=O)[O-])c1N | 113
60 | CN1CCN(CNc2nc(=O)n(CN3CCN(C)CC3)cc2F)CC1 | 165 to 166
61 | COCC(=O)N(CC(C)=NOC)c1c(C)cccc1C | 56 to 57
62 | CC(=O)Nc1cc2c(cc1C#N)CCC2 | 172
63 | CC(C)(C)OC(=O)NCc1cc(N=C(N)c2cccs2)ccc1N1CCN(C(=O)CCCCC2CCSS2)CC1 (stereo not given) | 162 to 164
64 | COc1cc2cnc3c(c2cc1OC)Cc1c-3cc2c(c1CN(C)C)OCO2 | 205 to 207
65 | FC(F)(F)Oc1ccc(-n2cc(CBr)cn2)cc1 | 50 to 51
66 | N#Cc1nn(-c2c(Cl)cc(C(F)(F)F)cc2Cl)cc1-c1occc1Br | 99 to 101
67 | C1=C(c2c[nH]c3ccccc23)CCN(CC2COc3ccc4c(c3O2)OCCC4)C1 (stereo not given) | 140
68 | CC(C)(F)C1COCc2nc3c(N)nc4cc(O)ccc4c3n21 (stereo not given) | 219 to 221
69 | CN1CC(=O)Nc2ccncc2C1=O | 267 to 268
70 | CCCCCCCCCCCCCCCCCCOP(=O)(Cc1c(C)cc(C(C)(C)C)c(O)c1C)OCCCCCCCCCCCCCCCCCC | 70 to 72
